Values after ≈ are worked out from the molar mass of the structure shown. Values joined by “and” are separate entries in the source; they are usually repeats but may differ in a detail not shown here. Equal values may be shown once. “Also recorded” adds a separate entry of the source.
Experiments:
Caco-2 cells = test: Caco-2 cell toxicity, MTT assay; format: cell-based, human; details: overnight
Procedure: (§1) Caco-2 cells were seeded onto microtiter 96-well plates at a density of 70,000 cells/mL in 50 µL of minimal essential medium (Sigma) supplemented with 10% fetal bovine serum (Sigma), 1% L-glutamine (Gibco), and 1% non-essential amino acids (Sigma). Cells were incubated for two days at 37 °C in a humidified atmosphere containing 5% CO2. Then the cells were treated with the selected compounds at different concentrations: 6G7 and 6C3 were added at concentrations of 0.0625, 0.125, 0.25, 0.5, 1, and 2 mM, and 7C8 at concentrations of 3.125, 6.25, 12.5, 25, 50, and 100 μM. The final DMSO concentration in the medium was adjusted as indicated by the solubility of individual compounds and was reduced proportionally with serial dilutions. The highest DMSO concentration in assays was 5%. After overnight incubation, the cell viability was assessed by the MTT assay. Briefly, 3-(4,5-dimethylthiazol-2-yl)-2,5-diphenyltetrazolium bromide (MTT) reagent was added to each well at a final concentration of 1 mg/mL and incubated for 3 h. The medium was then removed, and the formazan product of living cells was dissolved in DMSO. The absorbance was measured at 570 nm with a Fluostar Galaxy microplate reader. Three independent experiments with the compounds 6C3 and 7C8 and four independent experiments with the compound 6G7 were performed.

NLPPya [1] = target: T1, NLPPya (Pythium aphanidermatum, UniProt Q9SPD4); test: Tobacco leaf infiltration assay, NLPPya-induced necrosis/chlorosis; format: in vivo; details: 24 h; for effect on NLPPya-induced necrosis: 200 nM NLPPya, tobacco leaves
Procedure: Tobacco plants (Nicotiana tabacum ‘White Burley’) were grown in a controlled growth chamber with supplementary light (70−90 μMm^-2s^-1) and a 16 h photoperiod with 22°C day and 20°C night temperatures at 75±2% humidity. Using blunt-ended syringe pressure infiltration, 100 μL of solution ([…] of the compounds) was infiltrated abaxially into the leaves of 5−7-week-old tobacco plants (Nicotiana tabacum ‘White Burley’). 5% DMSO, NLP solutions, and appropriate compound dilutions were used as controls. The area on the upper side of the leaf, which was infiltrated with solutions, was labeled and checked for the presence of necrosis after 24 h. […] The level of leaf chlorosis was estimated using ImageJ software by calculating the ratio of the chlorotic area to the whole infiltrated area, both measured in squared pixels. Each value represents the average of sixteen infiltrations.

tobacco leaves = test: Tobacco leaf infiltration assay, compounds alone; format: in vivo, Nicotiana tabacum; details: 1 mM compound in 5% DMSO, 24 h
Procedure: Tobacco plants (Nicotiana tabacum ‘White Burley’) were grown in a controlled growth chamber with supplementary light (70−90 μMm^-2s^-1) and a 16 h photoperiod with 22°C day and 20°C night temperatures at 75±2% humidity. Using blunt-ended syringe pressure infiltration, 100 μL of solution (either 400 nM NLPPp or 250 nM NLPPya in ultrapure water in the absence or presence of the compounds) was infiltrated abaxially into the leaves of 5−7-week-old tobacco plants (Nicotiana tabacum ‘White Burley’). 5% DMSO, NLP solutions, and appropriate compound dilutions were used as controls. The area on the upper side of the leaf, which was infiltrated with solutions, was labeled and checked for the presence of necrosis after 24 h. To thoroughly assess the effect of compound 6G7 on the level of leaf necrosis/chlorosis, 50 μL of 100 nM NLPPya solution without/with 500 μM or 1 mM 6G7 in 20 mM MES, 150 mM NaCl, pH 5.8, containing 10% DMSO was infiltrated. The level of leaf chlorosis was estimated using ImageJ software by calculating the ratio of the chlorotic area to the whole infiltrated area, both measured in squared pixels. Each value represents the average of sixteen infiltrations.

Phytophthora infestans = format: in vivo; details: for P. infestans infection spots on potato leaves (size and coloring): 1 mM compound applied with zoospores, 4 days; for P. infestans growth on potato leaves by real-time PCR: 1 mM compound, 4 days after infection, vs control compound 6E11
NLPPya [2] = target: T1, NLPPya; test: Surface plasmon resonance binding to immobilized NLPPya; details: for SPR binding to NLPPya (in words): sensor-chip-immobilized NLPPya; for Kd: SPR, steady-state affinity model, 50 mM MES, 150 mM NaCl, 5% DMSO, pH 5.8
Procedure: Biacore T100 equipped with the Series S Sensor chip CM5 (GE Healthcare) was used to assess the binding of compounds to NLPPya and NLPPp. The proteins were covalently immobilized to the chip using amine coupling. The surface was activated with a 10 min injection of a mixture of 1-ethyl-3-(3-dimethylaminopropyl) carbodiimide hydrochloride / N-hydroxysuccinimide (1:1). NLPs were immobilized on the second flow cell. The first flow cell was left empty to control any nonspecific compound binding to the dextran matrix. […] In total, 587 in-house compounds (Faculty of Pharmacy, University of Ljubljana) were dissolved in DMSO as stock solutions at a concentration of 10 mM and diluted in 50 mM 2-(N-morpholino)ethanesulfonic acid (MES) and 150 mM NaCl to a final concentration of 5% DMSO (pH 5.8) prior to SPR experiments. After washing the sensor surface with running buffer (50 mM MES, 150 mM NaCl, 5% DMSO, pH 5.8), the compounds were tested at two different concentrations: 20 and 200 μM. Certain compounds were tested at lower concentrations owing to their lower solubility in the running buffer. Each compound was injected for 1 min at a flow rate of 30 μL/min, and dissociation was monitored for another minute. […] In the next set of experiments, 67 selected compounds were titrated. The samples were injected for 1 min at a flow rate of 30 μL/min, and dissociation was monitored for another minute. The samples were typically injected at the following concentrations: 0, 12.5, 25, 50, 100, and 200 μM. At the end of each concentration series, 25 μM of compound was injected again to control the activity of the surface. Regeneration between individual injections was not needed for molecules that completely dissociated from the protein. When complete dissociation was not achieved, short pulses of 0.1% SDS were included. The obtained sensorgrams were analyzed using the Biacore T100 Evaluation software, and the steady-state affinity binding model was used to calculate affinity constants.

NLPPya [3] = target: T1, NLPPya; test: Ion leakage from tobacco leaf disks induced by NLPPya; format: in vivo; details: 100 nM NLPPya, conductivity after 2 h
Procedure: Tobacco leaves were infiltrated with 100 nM NLPPya in 20 mM MES, 150 mM NaCl pH 5.8, preincubated for 10 min with 500 μM or 1 mM 6G7. Final concentration of DMSO in solution was 10%. After 10 min incubation, 2 leaf disks were punched out (Ø 6 mm) and transferred to 2 mL of deionized distilled water. After 30 min of shaking at 430 rpm, leaf disks were transferred to 1 mL of fresh deionized distilled water. Conductivity was measured after 2 h using SevenCompact Cond meter (Mettler Toledo). Mock treated samples were discs from leaves infiltrated with buffer containing 10% DMSO or 6G7. Each value represents the average of 12–18 independent experiments.

NLPPya [4] = target: T1, NLPPya; test: STD-NMR binding to NLPPya; details: 25°C
Procedure: STD-NMR experiments were performed with 8 μM NLPPya. A pseudo-2D version of a STD-NMR pulse sequence with DPFGSE water suppression for the interleave acquisition of on- (δ 0.2 ppm) and off-resonance (δ 40 ppm) spectra was used at 25°C with 512 scans. A 30 ms spin-lock filter was used for protein signal suppression. The STD spectra were obtained by subtracting the saturated spectra from the reference spectra. The STD effect was calculated by (I0-Isat)/I0, where I0 is the signal intensity in the off-resonance spectrum, Isat is the signal intensity in the on-resonance spectrum, and I0-Isat is the intensity of the STD-NMR spectrum. Appropriate control experiments in the absence of protein were performed to assure the absence of direct irradiation of the ligand. In the titration study, five STD experiments were performed with varying ligand concentrations (40, 80, 240, 400, and 560 μM).
The STD amplification factor (STD-AF) was determined according to Eq 1, where [L] is the ligand concentration, and [P] is the NLPPya concentration.
The hyperbolic behavior of the curves obtained from plotting STD-AF as a function of ligand concentration is appropriately described by Eq 2, where STD-AF is the STD amplification factor, αSTD is the maximum amplification factor, [L] is the ligand concentration, and KD is the dissociation constant. […]

[5] = Caco-2 cell toxicity, MTT assay; format: cell-based, human; details: human, Caco-2, 12.5 μM, overnight, read-out: Caco-2 cell viability, of the untreated control
Procedure: as §1

[6] = Solubility in SPR running buffer; format: physicochemical; details: SPR running buffer containing 5% DMSO

T1 sequence (Q9SPD4 18-234 limits assumed): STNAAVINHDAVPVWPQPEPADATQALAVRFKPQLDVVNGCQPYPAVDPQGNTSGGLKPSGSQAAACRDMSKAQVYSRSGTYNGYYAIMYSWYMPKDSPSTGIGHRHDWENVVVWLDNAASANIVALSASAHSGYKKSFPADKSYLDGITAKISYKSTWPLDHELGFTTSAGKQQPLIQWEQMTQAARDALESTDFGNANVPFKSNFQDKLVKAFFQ

| SMILES | reduction of Caco-2 cell viability (Caco-2 cells; 1 mM) | reduction of Caco-2 cell viability (Caco-2 cells; 2 mM) | effect on Caco-2 cell viability (Caco-2 cells; concentrations below 500 μM) | effect on NLPPya-induced necrosis (NLPPya [1]; 1 mM compound) | toxic effects of compound alone on leaf tissue (tobacco leaves) | P. infestans infection spots on potato leaves (size and coloring) (Phytophthora infestans) | P. infestans growth on potato leaves by real-time PCR (Phytophthora infestans) | SPR binding to NLPPya (in words) (NLPPya [2]) | effect on Caco-2 cell viability (Caco-2 cells; up to concentrations approximately 10 times higher than its KD for NLPs) | ion leakage induced by NLPPya from tobacco cells (NLPPya [3]; 500 μM compound) | ion leakage induced by NLPPya from tobacco cells (NLPPya [3]; 1 mM compound) | NLPPya-induced leaf chlorosis (NLPPya [1]; 100 nM NLPPya, 1 mM compound, buffer with 10% DMSO) | STD signals in the presence of NLPPya (NLPPya [4]; 400 μM ligand, 1:50 receptor-to-ligand ratio) | Kd (NLPPya [4]; STD-NMR titration, 8 μM NLPPya) | Kd (NLPPya [2]) | viability at 12.5 µM [5] | reduction of Caco-2 cell viability (Caco-2 cells; 3.125 μM) | solubility limit [6] | solubility ([6]; pH 5.8, aqueous with cosolvent or surfactant or cyclodextrin, kinetic from dmso stock, read-out: solubility limit) | effect on NLPPya-induced necrosis (NLPPya [1]; 200 μM compound) |
| --- | --- | --- | --- | --- | --- | --- | --- | --- | --- | --- | --- | --- | --- | --- | --- | --- | --- | --- | --- | --- |
| Cc1ccc2occ(C3N[C@H](C(=O)O)CS3)c(=O)c2c1 (stereo partly drawn) [6C3, (4R)-2-(6-methyl-4-oxo-4H-chromen-3-yl)thiazolidine-4-carboxylic acid] | 8% | 15% | did not affect cell viability | inhibited | did not affect the plant tissue | largely reduced or disappeared | significantly reduced | stable binding |  |  |  |  |  |  |  |  |  |  |  |  |
| Cc1oc([C@@H](O)[C@H](O)[C@H](O)CO)cc1C(=O)O [6E11, 2-methyl-5-((1S,2R,3R)-1,2,3,4-tetrahydroxybutyl)furan-3-carboxylic acid, reference compound] |  |  |  |  | did not affect the plant tissue |  |  | did not bind |  |  |  |  |  |  |  |  |  |  |  |  |
| COc1ccc(Nc2ccccc2C(=O)O)cc1 [6G7, 2-((4-methoxyphenyl)amino)benzoic acid] |  |  |  | inhibited | did not affect the plant tissue | largely reduced or disappeared | significantly reduced; also recorded: significantly inhibited |  | did not affect cell viability; also recorded: non-toxic | efficiently inhibit | efficiently inhibit | efficiently reduced | clear STD signals | 150 ± 7 µM | 131 ± 36.4 µM |  |  |  |  |  |
| O=C(Cc1c[nH]c2ccccc12)Nc1ccccc1CCOC(=O)Cc1c[nH]c2ccccc12 [7C8, 2-(2-(1H-indol-3-yl)acetamido)phenethyl 2-(1H-indol-3-yl)acetate] |  |  |  |  | did not affect the plant tissue | largely reduced or disappeared | significantly reduced |  |  |  |  |  |  |  | 52.8 µM and ~50 µM | 20% | 35% | poorly soluble at concentrations of >180 | ~180 µM (≈ 81.3 µg/mL) | inhibited |

Source: publication PMC8078777 (PLoS Pathogens, 2021)
